Test system: subjects with T2DM and CKD stage 3B or 4
Assay: Phase 1b 28-day safety, tolerability and PK study in subjects with T2DM and CKD stage 3B or 4
Assay type: in vivo
Excerpt: An Open Label, Parallel Arm Study to Assess the Safety, Tolerability, and Pharmacokinetics of Imeglimin in Subjects with Type 2 Diabetes Mellitus (T2DM) and Moderate to Severe Chronic Kidney Disease (CKD)
This Phase 1b study is to assess the safety, tolerability and pharmacokinetics (PK) of imeglimin in subjects with T2DM and CKD stage 3B or 4.
Subjects will be randomly allocated to receive one of three treatments or placebo.
Doses which are below the minimally acceptable doses are acceptable if stable for 12 weeks prior to Screening as per prescribing information. […] Primary Outcome Measures […]
Safety can be evaluated by assessment of clinical laboratory tests, physical examinations, vital signs measurements, and ECG readings at various time points during the study, and by the documentation of AEs.
The incidence of treatment-emergent adverse events (TEAE) will be summarized by treatment.
Plasma lactate will be summarized descriptively by absolute value at each visit by treatment group, together with the corresponding changes from baseline.
Pharmacokinetics (PK) data can be descriptively summarized by treatment group. PK parameters will be determined using noncompartmental methods. […] Steady-state can be evaluated using the trough concentration data.

[1] = Imeglimin Total, CKD3b (n = 21)

In the case of `C[C@H]1N=C(N(C)C)N=C(N)N1` [imeglimin, (6R)—N^2, N^2,6-trimethyl-3,6-dihydro-1,3,5-triazine-2,4-diamine], the “Subjects with any study drug related TEAE: Grade 5 - Death” value (1000 mg BID, CKD4 (n = 7)) is reported as 0 n, %, the “TEAE: Gastrointestinal disorders” value (1000 mg BID, CKD4 (n = 7)) is reported as 2 (29%) n, % and the “Subjects with any TEAE” value (1500 mg QD, CKD3b (n = 17)) is reported as 4 (57%) n, %. The “Subjects with any TEAE by maximum severity: Grade 1 - Mild” value (shortened to “Subjects with any TEAE … - Mild”) (1500 mg QD, CKD3b (n = 17)) was 3 (43%) n, %, the “Subjects with any TEAE by maximum severity: Grade 2 - Moderate” value (shortened to “Subjects with any TEAE … - Moderate”) (1500 mg QD, CKD3b (n = 17)) was 1 (14%) n, % and the “Subjects with any TEAE by maximum severity: Grade 3 - Severe” value (shortened to “Subjects with any TEAE … - Severe”) (1500 mg QD, CKD3b (n = 17)) was 0 n, %. For the same molecule, the “Subjects with any TEAE by maximum severity: Grade 4 - Life-threatening” value (“Subjects with any TEAE … - Life-threatening” for short) (1500 mg QD, CKD3b (n = 17)) was 0 n, %, the “Subjects with any TEAE by maximum severity: Grade 5 - Death” value (from here on “Subjects with any TEAE … - Death”) (1500 mg QD, CKD3b (n = 17)) was 0 n, % and the “Subjects with any study drug related TEAE” value (1500 mg QD, CKD3b (n = 17)) was 1 (14%) n, %. The “Subjects with any study drug related TEAE: Grade 1 - Mild” value (1500 mg QD, CKD3b (n = 17)) was 1 (14%) n, %, the “Subjects with any study drug related TEAE: Grade 2 - Moderate” value (1500 mg QD, CKD3b (n = 17)) was 0 n, % and the “Subjects with any study drug related TEAE: Grade 3 - Severe” value (1500 mg QD, CKD3b (n = 17)) was 0 n, %. The “Subjects with any study drug related TEAE: Grade 4 - Life-threatening” value (1500 mg QD, CKD3b (n = 17)) was 0 n, %, the “Subjects with any study drug related TEAE: Grade 5 - Death” value (1500 mg QD, CKD3b (n = 17)) was 0 n, % and the “TEAE: Gastrointestinal disorders” value (1500 mg QD, CKD3b (n = 17)) was 3 (43%) n, %. The “Subjects with any TEAE” value (1500 mg QD, CKD4 (n = 5)) was 3 (60%) n, %, the “Subjects with any TEAE … - Mild” value (1500 mg QD, CKD4 (n = 5)) was 3 (60%) n, % and the “Subjects with any TEAE … - Moderate” value (1500 mg QD, CKD4 (n = 5)) was 0 n, %. The “Subjects with any TEAE … - Severe” value (1500 mg QD, CKD4 (n = 5)) was 0 n, %, the “Subjects with any TEAE … - Life-threatening” value (1500 mg QD, CKD4 (n = 5)) was 0 n, % and the “Subjects with any TEAE … - Death” value (1500 mg QD, CKD4 (n = 5)) was 0 n, %. The “Subjects with any study drug related TEAE” value (1500 mg QD, CKD4 (n = 5)) was 2 (40%) n, %, the “Subjects with any study drug related TEAE: Grade 1 - Mild” value (1500 mg QD, CKD4 (n = 5)) was 2 (40%) n, % and the “Subjects with any study drug related TEAE: Grade 2 - Moderate” value (1500 mg QD, CKD4 (n = 5)) was 0 n, %. For the same molecule, the “Subjects with any study drug related TEAE: Grade 3 - Severe” value (1500 mg QD, CKD4 (n = 5)) was 0 n, %, the “Subjects with any study drug related TEAE: Grade 4 - Life-threatening” value (1500 mg QD, CKD4 (n = 5)) was 0 n, % and the “Subjects with any study drug related TEAE: Grade 5 - Death” value (1500 mg QD, CKD4 (n = 5)) was 0 n, %. For the same molecule, the “TEAE: Gastrointestinal disorders” value (1500 mg QD, CKD4 (n = 5)) was 2 (40%) n, %, the “confirmed plasma lactate elevations” value (CKD stages 3B and 4, 28 days) was “no cases of confirmed plasma lactate elevations” and the lactic acidosis (CKD stages 3B and 4, 28 days) was “no lactic acidosis”. The serious adverse events (CKD stages 3B and 4, 28 days) was “no incidence of serious adverse events”, the “AUC by CKD stage” value (Day 15, 1500 mg QD and 1000 mg BID treatment groups) was “increased in the T2DM with CKD stage 4 compared to CKD3B” and the “Subjects with any TEAE” value [1] was 10 (48%) n, %. The “Subjects with any TEAE … - Mild” value [1] was 6 (29%) n, %, the “Subjects with any TEAE … - Moderate” value [1] was 4 (19%) n, % and the “Subjects with any TEAE … - Severe” value [1] was 0 n, %. For the same molecule, the “Subjects with any TEAE … - Life-threatening” value [1] was 0 n, %, the “Subjects with any TEAE … - Death” value [1] was 0 n, % and the “Subjects with any study drug related TEAE” value [1] was 3 (14%) n, %. The “Subjects with any study drug related TEAE: Grade 1 - Mild” value [1] was 2 (10%) n, %, the “Subjects with any study drug related TEAE: Grade 2 - Moderate” value [1] was 1 (5%) n, % and the “Subjects with any study drug related TEAE: Grade 3 - Severe” value [1] was 0 n, %. The “Subjects with any study drug related TEAE: Grade 4 - Life-threatening” value [1] was 0 n, %, the “Subjects with any study drug related TEAE: Grade 5 - Death” value [1] was 0 n, % and the “TEAE: Gastrointestinal disorders” value [1] was 5 (24%) n, %. The “Subjects with any TEAE” value (Imeglimin Total, CKD4 (n = 17)) was 8 (47%) n, %, the “Subjects with any TEAE … - Mild” value (Imeglimin Total, CKD4 (n = 17)) was 5 (29%) n, % and the “Subjects with any TEAE … - Moderate” value (Imeglimin Total, CKD4 (n = 17)) was 3 (18%) n, %. The “Subjects with any TEAE … - Severe” value (Imeglimin Total, CKD4 (n = 17)) was 0 n, %, the “Subjects with any TEAE … - Life-threatening” value (Imeglimin Total, CKD4 (n = 17)) was 0 n, % and the “Subjects with any TEAE … - Death” value (Imeglimin Total, CKD4 (n = 17)) was 0 n, %. For the same molecule, the “Subjects with any study drug related TEAE” value (Imeglimin Total, CKD4 (n = 17)) was 3 (18%) n, %, the “Subjects with any study drug related TEAE: Grade 1 - Mild” value (Imeglimin Total, CKD4 (n = 17)) was 3 (18%) n, % and the “Subjects with any study drug related TEAE: Grade 2 - Moderate” value (Imeglimin Total, CKD4 (n = 17)) was 0 n, %. The “Subjects with any study drug related TEAE: Grade 3 - Severe” value (Imeglimin Total, CKD4 (n = 17)) was 0 n, %, the “Subjects with any study drug related TEAE: Grade 4 - Life-threatening” value (Imeglimin Total, CKD4 (n = 17)) was 0 n, % and the “Subjects with any study drug related TEAE: Grade 5 - Death” value (Imeglimin Total, CKD4 (n = 17)) was 0 n, %. The “TEAE: Gastrointestinal disorders” value (Imeglimin Total, CKD4 (n = 17)) was 4 (24%) n, %, the “maximum observed concentrations (Cmax)” value (after the morning dose on Day 15) was “increased in a dose-dependent manner” and the tolerability (as CKD severity increased (up to stage 4)) was “well tolerated”.

From patent US12036226B2, “Methods of treating subjects having diabetes with chronic kidney disease” (Poxel SA, priority 2018, dated 2024)
